From patent US5527781A, “4-O-(aminoglycosyl)- or 4,6-di-O-(aminoglycosyl)-2,5-dideoxy-5,5-difluorostreptamine derivatives” (Zaidan Hojin Biseibutsu Kagaku Kenkyu Kai, priority 1990, dated 1996)
Values after ≈ are worked out from the molar mass of the structure shown. “Also recorded” adds a separate entry of the source.

How the values were obtained:
[1] = test system: bacteria; settings: literature / earlier filings; cited from earlier work
[2] = in vivo; settings: mouse, iv, pH 7
Description: Further, in order to estimate acute toxicity of the compound of the general formula (I) according to this invention, some examples of the compounds of this invention were independently dissolved in water to prepare aqueous solutions (as adjusted to pH 7 by addition of hydrochloric acid). […] The tested compounds of this invention are expressed by the same abbreviations as in Table 1. […] The comparative compounds as tested are also expressed by the same abbreviations as in Table 1.

[3] = test system: Escherichia coli K-12 LA 290 R55; assay: microbe, parasite or virus in culture; format: cell-based; settings: K12LA290R55; Escherichia coli K-12 LA 290 R55; resistance mechanism ANT(2"); Mueller-Hinton agar, 37° C
[4] = test system: Staphylococcus aureus 209P; assay: MIC, standard serial dilution method; format: cell-based; settings: Mueller-Hinton agar, 37° C
[5] = test system: Escherichia coli K-12 ML 1629; assay: microbe, parasite or virus in culture; format: cell-based; settings: K12ML1629; Escherichia coli K-12 ML 1629; resistance mechanism APH(3')-I; Mueller-Hinton agar, 37° C; read-out: MIC
[6] = test system: Providencia sp. Pv 16; assay: MIC, standard serial dilution method; format: cell-based; settings: SP.PV16, resistance mechanism AAC(2'), Mueller-Hinton agar, 37° C
[7] = test system: Pseudomonas aeruginosa GN 315; assay: MIC, standard serial dilution method; format: cell-based; settings: GN315; Pseudomonas aeruginosa GN 315; resistance mechanism AAC(6'); Mueller-Hinton agar, 37° C; read-out: MIC
[8] = test system: Escherichia coli K-12; assay: MIC, standard serial dilution method; format: cell-based; settings: K12; Escherichia coli K-12; Mueller-Hinton agar, 37° C; read-out: MIC
[9] = test system: Bacillus subtilis PCI219; assay: MIC, standard serial dilution method; format: cell-based; settings: Mueller-Hinton agar, 37° C
[10] = test system: Escherichia coli K-12 R5; assay: microbe, parasite or virus in culture; format: cell-based; settings: K12R5; Escherichia coli K-12 R5; resistance mechanism AAC(6'); Mueller-Hinton agar, 37° C
[11] = test system: Corynebacterium bovis 1810; assay: MIC, standard serial dilution method; format: cell-based; settings: Mueller-Hinton agar, 37° C
[12] = test system: Klebsiella pneumoniae 22#3038; assay: MIC, standard serial dilution method; format: cell-based; settings: resistance mechanism APH(3')-II, ANT(2"), Mueller-Hinton agar, 37° C
[13] = test system: Serratia marcescens; assay: MIC, standard serial dilution method; format: cell-based; settings: Mueller-Hinton agar, 37° C
[14] = test system: Mycobacterium 607; assay: MIC, standard serial dilution method; format: cell-based; settings: Mueller-Hinton agar, 37° C
[15] = test system: Staphylococcus aureus Ap01; assay: MIC, standard serial dilution method; format: cell-based; settings: resistance mechanism ANT(4'), Mueller-Hinton agar, 37° C
[16] = test system: Escherichia coli JR66/W677; assay: microbe, parasite or virus in culture; format: cell-based; settings: resistance mechanism APH(3')-II, ANT(2"), Mueller-Hinton agar, 37° C
[17] = test system: Pseudomonas aeruginosa A3; assay: MIC, standard serial dilution method; format: cell-based; settings: Mueller-Hinton agar, 37° C
[18] = test system: Proteus rettgeri GN 311; assay: MIC, standard serial dilution method; format: cell-based; settings: Providencia rettgeri, GN311; Proteus rettgeri GN 311; Mueller-Hinton agar, 37° C; read-out: MIC
[19] = test system: Escherichia coli JR225; assay: microbe, parasite or virus in culture; format: cell-based; settings: resistance mechanism AAC(3), Mueller-Hinton agar, 37° C

Structure (SMILES): NC[C@H]1O[C@H](O[C@H]2[C@H](O)[C@@H](O[C@H]3O[C@H](CO)[C@H](F)[C@H](N)[C@H]3O)[C@H](N)C[C@@H]2N)[C@H](O)[C@@H](O)[C@@H]1O [4"-deoxy-4"-fluoro-4"-epi-kanamycin A]
- antibacterial activity compared with parent (e.g. kanamycin A) [1]: lower than that of kanamycin A

Structure (SMILES): NC[C@H]1O[C@H](O[C@H]2[C@H](O)[C@@H](O[C@H]3O[C@H](CO)[C@@H](O)[C@H](N)[C@H]3O)[C@H](N)C[C@@H]2N)[C@H](O)[C@@H](F)[C@@H]1O [3'-deoxy-3'-fluorokanamycin A]
- antibacterial activity compared with parent (e.g. kanamycin A) [1]: improved antibacterial activities, as compared to those of their corresponding parent compounds

Structure (SMILES): NC[C@@H]1C[C@H](F)[C@@H](N)[C@@H](O[C@H]2[C@H](O)[C@@H](O[C@H]3O[C@H](CO)[C@@H](O)[C@H](N)[C@H]3O)[C@H](N)C[C@@H]2N)O1 [3',4'-dideoxy-3'-fluorokanamycin B]
- antibacterial activity compared with parent (e.g. kanamycin A) [1]: improved antibacterial activities, as compared to those of their corresponding parent compounds

Structure (SMILES): NC[C@H]1O[C@H](O[C@H]2[C@H](O)[C@@H](O[C@H]3O[C@H](CF)[C@@H](O)[C@H](N)[C@H]3O)[C@H](N)C[C@@H]2N)[C@H](O)[C@@H](O)[C@@H]1O [6"-deoxy-6"-fluorokanamycin A]
- antibacterial activity compared with parent (e.g. kanamycin A) [1]: antibacterial activities substantially as high as that of kanamycin A

Structure (SMILES): NC[C@H]1O[C@H](O[C@H]2[C@H](O)[C@@H](O[C@H]3O[C@H](CO)[C@@H](O)[C@H](N)[C@H]3O)[C@H](N)C[C@@H]2N)[C@H](F)C[C@@H]1O [2',3'-dideoxy-2'-fluorokanamycin A]
- antibacterial activity compared with parent (e.g. kanamycin A) [1]: improved antibacterial activities, as compared to those of their corresponding parent compounds

Structure (SMILES): NCC[C@H](O)C(=O)N[C@@H]1C[C@H](N)[C@@H](O[C@H]2O[C@H](CN)CC[C@H]2N)C(F)(F)[C@H]1O[C@H]1O[C@H](CO)[C@@H](O)[C@H](N)[C@H]1O [Compound 5FF-DKB-AHB, 1-N-[(S)-4-amino-2-hydroxybutyryl]-5,3',4'-trideoxy-5,5-difluorokanamycin B]
- LD50 [2]: ~200 mg/kg
- MIC [3]: < 0.2 µg/mL
- MIC [4]: 0.39 µg/mL (≈ 0.681 µM)
- MIC [5]: 0.39 µg/mL (≈ 0.681 µM)
- MIC [6]: 0.78 µg/mL (≈ 1.36 µM)
- MIC [7]: 12.5 µg/mL (≈ 21.8 µM)
- MIC [8]: < 0.2 µg/mL
- MIC [9]: 0.39 µg/mL (≈ 0.681 µM)
- MIC [10]: 3.12 µg/mL (≈ 5.45 µM)
- MIC [11]: < 0.2 µg/mL
- MIC [12]: 0.78 µg/mL (≈ 1.36 µM)
- MIC [13]: 1.56 µg/mL (≈ 2.72 µM)
- MIC [14]: 0.78 µg/mL (≈ 1.36 µM)
- MIC [15]: 3.12 µg/mL (≈ 5.45 µM)
- MIC [16]: 0.39 µg/mL (≈ 0.681 µM)
- MIC [17]: 0.78 µg/mL (≈ 1.36 µM)
- MIC [18]: 0.39 µg/mL (≈ 0.681 µM)
- MIC [19]: < 0.2 µg/mL

Structure (SMILES): NC[C@H]1O[C@H](O[C@H]2[C@@H](F)[C@@H](O[C@H]3O[C@H](CF)[C@@H](O)[C@H](N)[C@H]3O)[C@H](N)C[C@@H]2N)[C@H](O)[C@@H](O)[C@@H]1O [5,6"-dideoxy-5,6"-difluoro-5-epi-kanamycin A]
- antibacterial activity compared with parent (e.g. kanamycin A) [1]: antibacterial activities substantially as high as that of kanamycin A

Structure (SMILES): NCC[C@H](O)C(=O)N[C@@H]1C[C@H](N)[C@@H](O[C@H]2O[C@H](CN)[C@@H](O)[C@H](O)[C@H]2O)C(F)(F)[C@H]1O[C@H]1O[C@H](CO)[C@@H](O)[C@H](N)[C@H]1O [Compound 5FF-amikacin, 1-N-[(S)-4-amino-2-hydroxybutyryl]-5-deoxy-5,5-difluorokanamycin A]
- LD50 [2]: > 300 mg/kg
- MIC [3]: 3.12 µg/mL (≈ 5.15 µM)
- MIC [4]: 3.12 µg/mL (≈ 5.15 µM)
- MIC [5]: 3.12 µg/mL (≈ 5.15 µM)
- MIC [6]: 3.12 µg/mL (≈ 5.15 µM)
- MIC [7]: > 100 µg/mL
- MIC [8]: 1.56 µg/mL (≈ 2.58 µM)
- MIC [9]: 1.56 µg/mL (≈ 2.58 µM)
- MIC [10]: 25 µg/mL (≈ 41.3 µM)
- MIC [11]: 3.12 µg/mL (≈ 5.15 µM)
- MIC [12]: 6.25 µg/mL (≈ 10.3 µM)
- MIC [13]: 6.25 µg/mL (≈ 10.3 µM)
- MIC [14]: 3.12 µg/mL (≈ 5.15 µM)
- MIC [15]: > 100 µg/mL
- MIC [16]: 3.12 µg/mL (≈ 5.15 µM)
- MIC [17]: 3.12 µg/mL (≈ 5.15 µM)
- MIC [18]: 1.56 µg/mL (≈ 2.58 µM)
- MIC [19]: 0.39 µg/mL (≈ 0.644 µM)

Structure (SMILES): NC[C@H]1O[C@H](O[C@H]2[C@H](O)[C@@H](O[C@H]3O[C@H](CO)[C@@H](O)[C@H](N)[C@H]3O)[C@H](N)C[C@@H]2N)[C@H](N)[C@@H](F)[C@@H]1O [3'-deoxy-3'-fluorokanamycin B]
- antibacterial activity compared with parent (e.g. kanamycin A) [1]: improved antibacterial activities, as compared to those of their corresponding parent compounds; also recorded: remarkable antibacterial activities against various gram-positive and gram-negative bacteria, including the resistant bacteria

Structure (SMILES): NC[C@H]1O[C@H](O[C@H]2[C@@H](F)[C@@H](O[C@H]3O[C@H](CO)[C@H](O)[C@H](N)[C@H]3O)[C@H](N)C[C@@H]2N)[C@H](O)[C@@H](O)[C@@H]1O [5-deoxy-5-fluoro-5,4"-di-epi-kanamycin A]
- antibacterial activity compared with parent (e.g. kanamycin A) [1]: antibacterial activities substantially as high as that of kanamycin A
